According to ChEMBL document CHEMBL4831517, “Optimization of a Series of RIPK2 PROTACs” (J Med Chem, 2021):
Values after ≈ are worked out from the molar mass of the structure shown. Active and inactive are the calls of the source. The calls are words filed in the database; no cut-off is given here.

Key:
[1] = biological target: Receptor-interacting serine/threonine-protein kinase 2 (Homo sapiens, UniProt O43353); test: Inhibition of full length His-tagged RIPK2 (unknown origin) expressed in baculovirus expression system using fluorescent labelled ATP competitive ligand by fluorescent polarization based binding assay
[2] = biological target: E3 ubiquitin-protein ligase XIAP/Receptor-interacting serine/threonine-protein kinase 2 (Homo sapiens, UniProt O43353+P98170); test: Protac activity at IAP/RIPK2 in human whole blood assessed as inhibition of MDP-induced TNFalpha production by ELISA; format: tissue-based
[3] = test system: Rattus norvegicus; test: (§1) Ex vivo protac activity at IAP/RIPK2 in rat assessed as inhibition of MDP-induced TNFalpha release at 0.5 mg/kg, sc measured for 8 to 48 hrs; format: functional; details: time 8-48 hrs
[4] = biological target: E3 ubiquitin-protein ligase XIAP (Homo sapiens, UniProt P98170); test: Binding affinity to human His-thr XIAP BIR3 (241 to 356) domain expressed in Escherichia coli measured after 105 mins in dark by time-resolved fluorescence laser-equipped multimode plate reader
[5] = test system: Rattus norvegicus; test: (§2) Ex vivo protac activity at IAP/RIPK2 in rat assessed as RIPK2 degradation at 0.5 mg/kg, sc measured for 8 to 48 hrs; format: functional; details: time 8-48 hrs
[6] = Binding affinity to human His-thr XIAP BIR2 (124 to 240) domain expressed in Escherichia coli measured after 105 mins in dark by time-resolved fluorescence laser-equipped multimode plate reader
[7] = biological target: T1, von Hippel-Lindau disease tumor suppressor/Receptor-interacting serine/threonine-protein kinase 2 (Homo sapiens, UniProt O43353+P40337); test: Protac activity at VHL/RIPK2 in human whole blood assessed as inhibition of MDP-induced TNFalpha production by ELISA; format: tissue-based
[8] = biological target: T2, Protein cereblon/Receptor-interacting serine/threonine-protein kinase 2 (Homo sapiens, UniProt O43353+Q96SW2); test: Protac activity at CRBN/RIPK2 in human whole blood assessed as inhibition of MDP-induced TNFalpha production by ELISA; format: tissue-based
[9] = biological target: T1, von Hippel-Lindau disease tumor suppressor/Receptor-interacting serine/threonine-protein kinase 2; test: Protac activity at VHL/RIPK2 in human THP-1 cells assessed as induction of RIPK2 degradation by measuring decrease in protein level incubated for 16 hrs by Western blot analysis; format: cell-based
[10] = Solubility of the compound by chemiluminescent nitrogen detection (CLND) method; format: physicochemical
[11] = Lipophilicity, logD of compound at pH 7.4 by Chromatography; format: physicochemical; details: buffer
[12] = biological target: E3 ubiquitin-protein ligase XIAP/Receptor-interacting serine/threonine-protein kinase 2 (Homo sapiens, UniProt P98170+O43353); test: Protac activity at IAP/RIPK2 in human THP-1 cells assessed as induction of RIPK2 degradation by measuring decrease in protein level incubated for 18 hrs by capillary-based immunoassay; format: cell-based
[13] = Metabolic stability in rat liver microsomes assessed as intrinsic clearance using pH 7.4 phosphate buffer incubated for 45 mins by LC-MS/MS analysis; format: ADME, Microsome; details: pH 7.4, 0.75 h
[14] = Metabolic stability in human liver microsomes assessed as intrinsic clearance using pH 7.4 phosphate buffer incubated for 45 mins by LC-MS/MS analysis; format: ADME, Microsome; details: pH 7.4, 0.75 h
[15] = as §1; format: functional; set-up: scale not given: the % may be the effect or the level left; details: time 8-48 hrs
[16] = as §2; format: functional; details: time 8-48 hrs
[17] = biological target: T2, Protein cereblon/Receptor-interacting serine/threonine-protein kinase 2; test: Protac activity at CRBN/RIPK2 in human THP-1 cells assessed as induction of RIPK2 degradation by measuring decrease in protein level incubated for 18 hrs by capillary-based immunoassay; format: cell-based

Chain of Receptor-interacting serine/threonine-protein kinase 2 (O43353 whole entry): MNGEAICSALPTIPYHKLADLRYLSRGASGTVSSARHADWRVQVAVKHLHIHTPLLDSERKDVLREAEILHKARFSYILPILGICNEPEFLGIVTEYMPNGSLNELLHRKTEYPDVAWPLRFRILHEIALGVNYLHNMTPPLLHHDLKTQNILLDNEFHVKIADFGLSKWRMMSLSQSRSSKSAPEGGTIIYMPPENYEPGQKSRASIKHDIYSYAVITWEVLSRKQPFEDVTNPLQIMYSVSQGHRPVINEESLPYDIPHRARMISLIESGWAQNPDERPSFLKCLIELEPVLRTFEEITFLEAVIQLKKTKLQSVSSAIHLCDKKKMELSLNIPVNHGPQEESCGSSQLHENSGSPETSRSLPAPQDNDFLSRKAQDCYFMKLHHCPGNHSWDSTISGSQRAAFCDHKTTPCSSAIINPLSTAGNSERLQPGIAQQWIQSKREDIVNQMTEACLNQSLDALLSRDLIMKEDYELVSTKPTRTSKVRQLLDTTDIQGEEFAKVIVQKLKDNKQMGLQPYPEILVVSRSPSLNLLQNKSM
T2 sequence (O43353 whole entry): as above
T2 sequence (Q96SW2 whole entry): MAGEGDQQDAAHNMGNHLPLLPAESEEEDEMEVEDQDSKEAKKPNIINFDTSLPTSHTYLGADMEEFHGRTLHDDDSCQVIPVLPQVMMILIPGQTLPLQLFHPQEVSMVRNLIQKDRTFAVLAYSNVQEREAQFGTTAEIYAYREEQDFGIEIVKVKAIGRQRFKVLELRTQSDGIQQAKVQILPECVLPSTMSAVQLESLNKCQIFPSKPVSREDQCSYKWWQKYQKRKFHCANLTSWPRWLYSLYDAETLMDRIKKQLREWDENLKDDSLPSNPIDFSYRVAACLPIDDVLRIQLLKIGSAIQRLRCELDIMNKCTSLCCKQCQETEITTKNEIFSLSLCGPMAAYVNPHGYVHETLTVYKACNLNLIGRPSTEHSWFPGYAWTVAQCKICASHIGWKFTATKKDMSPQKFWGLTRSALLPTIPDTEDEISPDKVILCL
Chain of E3 ubiquitin-protein ligase XIAP (P98170 whole entry): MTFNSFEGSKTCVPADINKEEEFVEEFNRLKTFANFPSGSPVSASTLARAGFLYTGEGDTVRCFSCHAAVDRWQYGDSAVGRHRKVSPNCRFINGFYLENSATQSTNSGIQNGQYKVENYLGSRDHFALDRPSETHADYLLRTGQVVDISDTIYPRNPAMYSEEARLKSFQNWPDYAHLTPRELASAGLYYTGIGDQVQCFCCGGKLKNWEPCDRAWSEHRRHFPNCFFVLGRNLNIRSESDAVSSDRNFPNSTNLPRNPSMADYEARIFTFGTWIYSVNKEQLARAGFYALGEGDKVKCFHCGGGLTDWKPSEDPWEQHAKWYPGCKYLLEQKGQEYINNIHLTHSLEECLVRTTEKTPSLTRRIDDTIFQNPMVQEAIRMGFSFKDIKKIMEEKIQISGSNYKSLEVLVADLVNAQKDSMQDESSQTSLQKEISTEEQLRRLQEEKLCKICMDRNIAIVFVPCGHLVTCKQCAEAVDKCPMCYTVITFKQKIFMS
Chain of E3 ubiquitin-protein ligase XIAP/Receptor-interacting serine/threonine-protein kinase 2 (Homo sapiens, UniProt O43353+P98170) (P98170 whole entry): as above
Chain of E3 ubiquitin-protein ligase XIAP/Receptor-interacting serine/threonine-protein kinase 2 (Homo sapiens, UniProt O43353+P98170) (O43353 whole entry): as the sequence (O43353 whole entry) above
T1 sequence (O43353 whole entry): as above
T1 sequence (P40337 whole entry): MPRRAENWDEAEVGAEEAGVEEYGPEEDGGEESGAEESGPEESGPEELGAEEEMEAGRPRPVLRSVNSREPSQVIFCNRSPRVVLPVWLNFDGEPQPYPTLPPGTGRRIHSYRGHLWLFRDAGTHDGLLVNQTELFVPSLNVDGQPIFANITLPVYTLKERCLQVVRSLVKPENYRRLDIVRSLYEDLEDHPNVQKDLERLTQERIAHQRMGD
Chain of E3 ubiquitin-protein ligase XIAP/Receptor-interacting serine/threonine-protein kinase 2 (Homo sapiens, UniProt P98170+O43353) (P98170 whole entry): as the sequence (P98170 whole entry) above
Chain of E3 ubiquitin-protein ligase XIAP/Receptor-interacting serine/threonine-protein kinase 2 (Homo sapiens, UniProt P98170+O43353) (O43353 whole entry): as the sequence (O43353 whole entry) above

CN[C@H](C)C(=O)N[C@@H](C(=O)N1C[C@@H](NC(=O)c2cnc(N3CCN(CCCOc4cc5ncnc(Nc6n[nH]c(C)c6C)c5cc4S(=O)(=O)C(C)(C)C)CC3)cn2)C[C@H]1c1nc(C(=O)c2ccc(F)cc2)cs1)C(C)(C)C
IC50 [1]: 0.158 nM | IC50 [2]: 2.51 nM

CN[C@@H](C)C(=O)N[C@H](C(=O)N1CCC[C@H]1c1nc(C(=O)c2ccc(F)cc2)cs1)C1CCN(C(=O)c2cnc(N3CCC(CCOc4cc5ncnc(Nc6n[nH]c(C)c6C)c5cc4S(=O)(=O)C(C)(C)C)CC3)nc2)CC1
IC50 [1]: 39.8 nM | IC50 [2]: 15.8 nM

CN[C@@H](C)C(=O)N[C@H](C(=O)N1CCC[C@H]1c1nc(C(=O)c2ccc(F)cc2)cs1)C1CCN(C(=O)c2cnc(N3CCN(CCCOc4cc5ncnc(Nc6n[nH]c(C)c6C)c5cc4S(=O)(=O)C(C)(C)C)CC3)nc2)CC1
IC50 [1]: 7.94 nM | IC50 [2]: 2 nM

Cc1[nH]nc(Nc2ncnc3cc(OCCCN4CCN(C(=O)c5cnc(N6CCN(C[C@H]7CN[C@H](C)CN7CC(=O)N7CC(C)(C)c8ncc(Cc9ccc(F)cc9)cc87)[C@H](C)C6)nc5)CC4)c(S(=O)(=O)C(C)(C)C)cc23)c1C
IC50 [1]: 25.1 nM | IC50 [2]: 2.51 nM

CN[C@@H](C)C(=O)N[C@H]1CN(C(=O)c2cnc(N3CCN(CCCOc4cc5ncnc(Nc6n[nH]c(C)c6C)c5cc4S(=O)(=O)C(C)(C)C)CC3)cn2)CC[C@H]2CC[C@@H](C(=O)N[C@@H]3CCCc4ccccc43)N2C1=O
IC50 [1]: 0.1 nM | IC50 [2]: 3.16 nM

CN[C@@H](C)C(=O)N[C@H](C(=O)N1CCC[C@H]1c1nc(C(=O)c2ccc(F)cc2)cs1)C1CCN(C(=O)COCCOCCOCCOCCOc2cc3ncnc(Nc4n[nH]c(C)c4C)c3cc2S(=O)(=O)C(C)(C)C)CC1
IC50 [1]: 158 nM | IC50 [2]: 63.1 nM

CN[C@@H](C)C(=O)N[C@H](C(=O)N1Cc2cc(OCCOCCOCCOCCOc3cc4ncnc(Nc5n[nH]c(C)c5C)c4cc3S(=O)(=O)C(C)(C)C)ccc2CC1C(=O)N[C@@H]1CCCc2ccccc21)C(C)(C)C (single isomer, unassigned)
IC50 [1]: 398 nM | IC50 [2]: 31.6 nM

CN[C@H](C)C(=O)N[C@H](C(=O)N1C[C@@H](NC(=O)c2cnc(N3CCN(CCCOc4cc5ncnc(Nc6n[nH]c(C)c6C)c5cc4S(=O)(=O)C(C)(C)C)CC3)cn2)C[C@H]1C(=O)Nc1c(F)cccc1F)C(C)(C)C
Activity [3]: Active | IC50 [4]: 6310 nM | Activity [5]: Active

CN[C@@H](C)C(=O)N[C@H]1CN(C(=O)c2cnc(N3CCN(CCCOc4cc5ncnc(Nc6n[nH]c(C)c6C)c5cc4S(=O)(=O)C(C)(C)C)CC3)cn2)CC[C@H]2CC[C@@H](C(=O)NC3CCCc4ccccc43)N2C1=O (some centres undefined)
IC50 [1]: 6.31 nM

Cc1[nH]nc(Nc2ncnc3cc(OCCCN4CCN(C(=O)c5cnc(N6CCN(C[C@H]7CN[C@H](C)CN7CC(=O)N7CC(C)(C)c8c7cc(Cc7ccc(F)cc7)c(=O)n8C)[C@H](C)C6)nc5)CC4)c(S(=O)(=O)C(C)(C)C)cc23)c1C
IC50 [1]: 7.94 nM | pIC50 [6]: < 4 | IC50 [2]: 6.31 nM | IC50 [4]: 12.6 nM

Cc1ncsc1-c1ccc(CNC(=O)[C@@H]2C[C@@H](O)CN2C(=O)[C@@H](NC(=O)COCCOCCOCCOCCOc2cc3nccc(Nc4ccc5scnc5c4)c3cc2S(=O)(=O)C(C)(C)C)C(C)(C)C)cc1
IC50 [7]: 100 nM | IC50 [8]: 100 nM | DC50 [9]: 1.5 nM

CN[C@@H](C)C(=O)N[C@H](C(=O)N1CCC[C@H]1c1nc(C(=O)c2ccc(F)cc2)cs1)C1CCN(C(=O)COCCOCCOCCOCCOc2cc3nccc(Nc4ccc5scnc5c4)c3cc2S(=O)(=O)C(C)(C)C)CC1
IC50 [1]: 5.01 nM | solubility kinetic [10]: 308 µM (≈ 348 µg/mL) | IC50 [2]: 10 nM | chromatographic logD [11]: 4.5

CN[C@@H](C)C(=O)N[C@H](C(=O)N1C[C@@H](NC(=O)c2cnc(N3CCN(CCCOc4cc5ncnc(Nc6n[nH]c(C)c6C)c5cc4S(=O)(=O)C(C)(C)C)CC3)cn2)CC1C(=O)NC1CCCc2ccccc21)C(C)(C)C (some centres undefined)
IC50 [1]: 12.6 nM

CN[C@@H](C)C(=O)N[C@H](C(=O)N1Cc2cc(OCCOCCOCCOCCOc3cc4nccc(Nc5ccc6scnc6c5)c4cc3S(=O)(=O)C(C)(C)C)ccc2C[C@@H]1C(=O)N[C@@H]1CCCc2ccccc21)C(C)(C)C
IC50 [1]: 10 nM | DC50 [12]: 0.2 nM | solubility kinetic [10]: 21 µM (≈ 22.9 µg/mL) | IC50 [2]: 10 nM | chromatographic logD [11]: 6.1

CN[C@@H](C)C(=O)N[C@H](C(=O)N1CCC[C@H]1c1nc(C(=O)c2ccc(F)cc2)cs1)C1CCN(C(=O)c2cnc(N3CCN(CCOc4cc5ncnc(Nc6n[nH]c(C)c6C)c5cc4S(=O)(=O)C(C)(C)C)CC3)cn2)CC1
CLH [13]: < 0.46 mL/min/g | IC50 [1]: 158 nM | CLH [14]: 0.57 mL/min/g | solubility kinetic [10]: 271 µM (≈ 296 µg/mL) | IC50 [2]: 15.8 nM

CN[C@@H](C)C(=O)N[C@H](C(=O)N1CCC[C@H]1c1nc(C(=O)c2ccc(F)cc2)cs1)C1CCN(C(=O)c2cnc(N3CCN(CCOc4cc5ncnc(Nc6n[nH]c(C)c6C)c5cc4S(=O)(=O)C(C)(C)C)CC3)nc2)CC1
CLH [13]: 0.48 mL/min/g | CLH [14]: 0.74 mL/min/g | solubility kinetic [10]: > 311 µM | IC50 [2]: 20 nM

CN[C@@H](C)C(=O)N[C@H](C(=O)N1CCC[C@H]1c1nc(C(=O)c2ccc(F)cc2)cs1)C1CCN(C(=O)c2cnc(N3CCC(COc4cc5ncnc(Nc6n[nH]c(C)c6C)c5cc4S(=O)(=O)C(C)(C)C)CC3)nc2)CC1
IC50 [1]: 10 nM | IC50 [2]: 25.1 nM

CN[C@@H](C)C(=O)N[C@H](C(=O)N1CCC[C@H]1c1nc(C(=O)c2ccc(F)cc2)cs1)C1CCN(C(=O)c2ccc(N3CCN(CCCOc4cc5ncnc(Nc6n[nH]c(C)c6C)c5cc4S(=O)(=O)C(C)(C)C)CC3)nc2)CC1
IC50 [1]: 10 nM | IC50 [2]: 7.94 nM

CN[C@@H](C)C(=O)N[C@H](C(=O)N1CCC[C@H]1c1nc(C(=O)c2ccc(F)cc2)cs1)C1CCN(C(=O)c2cnc(N3CCC(CCCOc4cc5ncnc(Nc6n[nH]c(C)c6C)c5cc4S(=O)(=O)C(C)(C)C)CC3)nc2)CC1
IC50 [1]: 31.6 nM | IC50 [2]: 3.16 nM

CN[C@@H](C)C(=O)N[C@H](C(=O)N1CCC[C@H]1c1nc(C(=O)c2ccc(F)cc2)cs1)C1CCN(C(=O)c2ccc(N3CCN(CCOc4cc5ncnc(Nc6n[nH]c(C)c6C)c5cc4S(=O)(=O)C(C)(C)C)CC3)nc2)CC1
CLH [13]: 0.55 mL/min/g | IC50 [1]: 126 nM | CLH [14]: 1.17 mL/min/g | solubility kinetic [10]: > 304 µM | IC50 [2]: 10 nM

CN[C@@H](C)C(=O)N[C@H](C(=O)N1CCC[C@H]1c1nc(C(=O)c2ccc(F)cc2)cs1)C1CCN(C(=O)c2cnc(N3CCN(CCCOc4cc5ncnc(Nc6n[nH]c(C)c6C)c5cc4S(=O)(=O)C(C)(C)C)CC3)cn2)CC1
IC50 [1]: 12.6 nM | pIC50 [6]: 5.8 | IC50 [2]: 1.58 nM | Activity [15]: 100% | IC50 [4]: 39.8 nM | Activity [16]: >70%

CN[C@@H](C)C(=O)N[C@H](C(=O)N1CCC[C@H]1c1nc(C(=O)c2ccc(F)cc2)cs1)C1CCN(C(=O)c2ccc(N3CCN(CCCOc4cc5ncnc(Nc6n[nH]c(C)c6C)c5cc4S(=O)(=O)C(C)(C)C)CC3)cc2)CC1
IC50 [1]: 31.6 nM | IC50 [2]: 12.6 nM

CC[C@@H](NC(=O)[C@@H]1C[C@H](NC(=O)COCCOCCOCCOCCOc2cc3nccc(Nc4ccc5scnc5c4)c3cc2S(=O)(=O)C(C)(C)C)CN1C(=O)[C@@H](NC(=O)[C@H](C)NC)C(C)(C)C)c1ccccc1
IC50 [1]: 2 nM | solubility kinetic [10]: > 235 µM | IC50 [2]: 25.1 nM | chromatographic logD [11]: 5.6

CC(C)(C)S(=O)(=O)c1cc2c(Nc3ccc4scnc4c3)ccnc2cc1OCCOCCOCCOCCOCC(=O)Nc1cccc2c1CN(C1CCC(=O)NC1=O)C2=O (centres undefined)
DC50 [17]: 6.2 nM | IC50 [8]: 63.1 nM
